# Measurements reported in publication PMC9344893 (ACS Medicinal Chemistry Letters, 2022).
# What was measured:
# [1] = test system: panel of 10 human MTases; assay: Human MTase screening, panel as a whole; format: biochemical; conditions: 10 μM
# [2] = target: SARS-CoV-2 Nsp14 MTase (Severe acute respiratory syndrome coronavirus 2, UniProt P0DTD1); format: biochemical
# [3] = test system: SARS-CoV-2 isolate USA-WA1/2020
# [4] = test system: A549/ACE2/TMPRSS2 cells; assay: Cell viability assay; format: cell-based
smiles,measurement,setting,value
Nc1ncnc2c1ncn2[C@@H]1O[C@H](CNS(=O)(=O)c2ccc3ccccc3c2)[C@@H](O)[C@H]1O [Compound 3],inhibition of the set of human MTases (in words),[1],minimal inhibition
same,fold more active than compound 1,[2],> 150 fold
Nc1ncnn2c([C@@H]3O[C@H](CNS(=O)(=O)c4ccc5ccccc5c4)[C@@H](O)[C@H]3O)ccc12 [Compound 10],therapeutic index (TI = CC50/EC50),[3]; A549 AT cells,greater than 139
CC(=O)Nc1ncnc2c1ncn2[C@@H]1O[C@H](CNS(=O)(=O)c2ccc3ccccc3c2)[C@@H](OC(C)=O)[C@H]1OC(C)=O [Compound 9],cytotoxicity at 100 μM (in words),[4],minimal cytotoxicity
CC(=O)O[C@@H]1[C@H](OC(C)=O)[C@@H](CNS(=O)(=O)c2ccc3ccccc3c2)O[C@H]1n1cnc2c(N)ncnc21 [Compound 8],cytotoxicity at 100 μM (in words),[4],minimal cytotoxicity
Nc1ncnc2c1ncn2[C@@H]1O[C@H](CNS(=O)(=O)c2ccc3nc(Cl)ccc3c2)[C@@H](O)[C@H]1O [Compound 5],fold reduction in inhibitory activity,[2],7 fold
"Nc1ncnc2c1ncn2[C@@H]1O[C@H](C[C@@H](N)CC[C@H](N)C(=O)O)[C@@H](O)[C@H]1O [sinefungin, reference compound]",antiviral activity (in words),[3],failed to show any activity
